# Results reported in patent publication US6913877B1 (priority 2000, dated 2005).
# “Also recorded” adds a separate entry of the source. Structures can show the parent of a compound that is named as a salt. No end group written: not given here.
# Legend:
# chromatophores [1] = tested on: chromatophores
# [2] = tested on: chromatophore/neuronal cell; format: cell-based
# [3] = tested on: chromatophore/fungal cell; format: cell-based
# [4] = tested on: Betta splendens erythrophores; format: cell-based
# chromatophores [5] = format: cell-based
# chromatophores [6] = test: cells; conditions: read-out: Threshold concentration PPM
# [7] = tested on: chromatophore/protozoal cell; format: cell-based
# erythrophores = format: cell-based
# melanophores = format: cell-based
# [8] = tested on: chromatophore/bacterial cell; format: cell-based
# Betta chromatophores = format: cell-based
# [9] = tested on: Hemichromis bimaculatus chromatophores; format: cell-based
# [10] = tested on: Betta splendens chromatophores; format: cell-based
# iridophores = format: cell-based
compound,measurement,setting,value
"c1ccc2cc3c(ccc4ccccc43)cc2c1 [1,2-Benzanthracene]","Chromatophore response (cell spans the chromatophore columns, cell type not assigned)",chromatophores [1],Imp.
Nc1ncnc2c1ncn2[C@@H]1O[C@H](COP(=O)(O)OP(=O)(O)OP(=O)(O)O)[C@@H](O)[C@H]1O [ATP],Chromatophore response 2-Cell Cytosensor (second cell type included),[2],Erythr. Aggr.
c1cc2c3c(cccc3c1)CC2 [Acenapthene],"Chromatophore response (cell spans the chromatophore columns, cell type not assigned)",chromatophores [1],Imp.
[Ag] [Ag],"Chromatophore response (cell spans the chromatophore columns, cell type not assigned)",chromatophores [1],Imp. (FS)
N [Ammonium],"Chromatophore response (cell spans the chromatophore columns, cell type not assigned)",chromatophores [1],Imp. (FS)
C[C@@H]1[C@H](O)[C@@H](C)/C=C/C=C/C=C/C=C/C=C/C=C/C=C/[C@H](O[C@@H]2O[C@H](C)[C@@H](O)[C@H](N)[C@@H]2O)C[C@@H]2O[C@](O)(C[C@@H](O)C[C@@H](O)[C@H](O)CC[C@@H](O)C[C@@H](O)CC(=O)O[C@H]1C)C[C@H](O)[C@H]2C(=O)O [Amphotericin B],Chromatophore response 2-Cell Cytosensor (second cell type included),[3],Normal
CC(=O)OCOC(=O)CN(CC(=O)OCOC(C)=O)c1ccccc1OCCOc1ccccc1N(CC(=O)OCOC(C)=O)CC(=O)OCOC(C)=O [BAPTA/AM],erythrophore pigment response,[4],pigment dispersion
COC(=O)C1=C(C)NC(C)=C([N+](=O)[O-])C1c1ccccc1C(F)(F)F (stereo not drawn) [Bay K8644],erythrophore pigment response to direct application,[4],neither the aggregation nor dispersion of erythrophore pigment
C=C(C=O)C[C@@H]1C[C@H](O)[C@]2(C)O[C@@H]3C[C@@H]4O[C@@H]5C[C@]6(C)O[C@]7(C)CC[C@@H]8O[C@@H]9C[C@]%10(C)O[C@@H]%11C(C)=CC(=O)O[C@H]%11C[C@H]%10O[C@H]9C[C@@H](C)[C@H]8O[C@H]7C[C@H]6O[C@H]5C/C=C\[C@H]4O[C@H]3C[C@H]2O1 [Brevetoxin],"Chromatophore response (cell spans the chromatophore columns, cell type not assigned)",chromatophores [1],Aggr.
Cn1c(=O)c2c(ncn2C)n(C)c1=O [Caffeine],concentration at which chromatophores respond,chromatophores [5],100 µM
"CCCCCCC(C)(C)c1ccc([C@@H]2C[C@H](O)CC[C@H]2CCCO)c(O)c1 [Cannabinoid CP-55940, CP-55940]",Response time Hr.,chromatophores [1],X (key: X=1-6 hr; XX=6-24 hr)
same,minimal effective concentration,chromatophores [6],100 to 1000 µg/mL
C[N+](C)(C)CCOC(N)=O [Carbachol],Chromatophore response 2-Cell Cytosensor (second cell type included),[2],Erythr. Aggr.
CCN(CC)CCCC(C)Nc1ccnc2cc(Cl)ccc12 (stereo not drawn) [Chloroquine],Chromatophore response 2-Cell Cytosensor (second cell type included),[7],Normal
Clc1cccc(Cl)c1N=C1NCCN1 [Clonidine],Chromatophore response Erythrophores,erythrophores,Aggr.
[Cu] [Cu],"Chromatophore response (cell spans the chromatophore columns, cell type not assigned)",chromatophores [1],Imp. (FS)
C=CC[C@@H](CC/C(C)=C/C=C/CC/C=C\[C@@H]1CSC([C@@H]2C[C@@H]2C)=N1)OC [Curacin A],"Chromatophore response (cell spans the chromatophore columns, cell type not assigned)",chromatophores [1],Aggr. and Imp. (FS)
COP(=O)(OC)OC=C(Cl)Cl [Dichlorvos],Threshold concentration PPT,chromatophores [1],X (key: X=1 PPT or higher)
C=C[C@@]1(C)CC(=O)[C@]2(O)[C@@]3(C)[C@@H](O)CCC(C)(C)[C@@H]3[C@H](O)[C@H](OC(C)=O)[C@@]2(C)O1 [Forskolin],concentration at which chromatophores respond,chromatophores [5],10000 µM
C[C@]12CCC(=O)C=C1CC[C@@H]1[C@@H]2[C@@H](O)C[C@@]2(C)[C@H]1CC[C@]2(O)C(=O)CO [Hydrocortisone],Chromatophore response Melanophores,melanophores,Hyp.D.
same,minimal effective concentration,chromatophores [6],1 to 100 µg/mL
OO [Hydrogen peroxide],"Chromatophore response (cell spans the chromatophore columns, cell type not assigned)",chromatophores [1],Imp. (FS)
C[C@H](CCC(=O)O)C[C@H](C)C[C@H](C)C(=O)/C=C(\O)[C@H](C)C[C@H](C)C/C=C/[C@@H](C)[C@@H](O)[C@@H](C)[C@@H](O)C[C@@H]1CC[C@@](C)([C@H]2CC[C@@](C)([C@@H](C)O)O2)O1 [Ionomycin],erythrophore pigment response,[4],"slight, but sustained aggregation"
Cc1ncc([N+](=O)[O-])n1CCO [Metronidazole],Chromatophore response 2-Cell Cytosensor (second cell type included),[7],Normal
CCn1cc(C(=O)O)c(=O)c2ccc(C)nc21 [Nalidixic acid],Chromatophore response 2-Cell Cytosensor (second cell type included),[8],Normal
c1ccc2c(CC3=NCCN3)cccc2c1 [Naphazoline],Chromatophore response Erythrophores,erythrophores,Aggr.
[Ni] [Ni],"Chromatophore response (cell spans the chromatophore columns, cell type not assigned)",chromatophores [1],Imp. (FS)
NC[C@H](O)c1ccc(O)c(O)c1 [Norepinephrine],Chromatophore response Erythrophores,erythrophores,Aggr.
same,chromatophore pigment response,Betta chromatophores,aggregation of chromatophore pigment is apparent
same,change of appearance / color of chromatophores,[9],change the appearance
same,Threshold concentration PPB,chromatophores [1],X (key: X=1 to 100 PPB; XX=100 to 1000 PPB)
Cc1cc(C(C)(C)C)c(O)c(C)c1CC1=NCCN1 [Oxymetazoline],Chromatophore response Erythrophores,erythrophores,Aggr.
O=S(=O)(F)Cc1ccccc1 [PMSF],Chromatophore response Melanophores,melanophores,Imp.
CCOP(=O)(OCC)Oc1ccc([N+](=O)[O-])cc1 [Paraoxon],Threshold concentration PPM,chromatophores [1],XX (key: X=1 to 100 PPM; XX=100 to 1000 PPM)
[Pb] [Pb],"Chromatophore response (cell spans the chromatophore columns, cell type not assigned)",chromatophores [1],Imp. (FS)
"CC(COc1ccccc1)N(CCCl)Cc1ccccc1 (stereo not drawn) [Phenoxybenzamine, Phenoxy-benzamine]","Chromatophore response (cell spans the chromatophore columns, cell type not assigned)",chromatophores [1],Blocks norepinephrine
same,Threshold concentration PPB,chromatophores [1],X (key: X=1 to 100 PPB; XX=100 to 1000 PPB)
Cc1ccc(N(CC2=NCCN2)c2cccc(O)c2)cc1 [Phentolamine],"Chromatophore response (cell spans the chromatophore columns, cell type not assigned)",chromatophores [1],Blocks norepinephrine
same,Threshold concentration PPB,chromatophores [1],XX (key: X=1 to 100 PPB; XX=100 to 1000 PPB)
C=C[C@H]1C[N@@]2CC[C@H]1C[C@H]2[C@H](O)c1ccnc2ccc(OC)cc12 [Quinine sulfate],Chromatophore response 2-Cell Cytosensor (second cell type included),[7],Normal
O=C(O)c1ccccc1O [Salicylate],"Chromatophore response (cell spans the chromatophore columns, cell type not assigned)",chromatophores [1],Imp. (FS)
NCCc1c[nH]c2ccc(O)cc12 [Serotonin],Chromatophore response Melanophores,melanophores,Partial
[H]/N=C(/N)N[C@H]1[C@H](O)[C@@H](O)[C@H](O[C@@H]2O[C@@H](C)[C@](O)(C=O)[C@H]2O[C@@H]2O[C@@H](CO)[C@H](O)[C@@H](O)[C@@H]2NC)[C@@H](N/C(N)=N\[H])[C@@H]1O [Streptomycin],Chromatophore response 2-Cell Cytosensor (second cell type included),[8],Normal
c1ccc2c(c1)CCCC2C1=NCCN1 (stereo not drawn) [Tetrahydrozoline],Chromatophore response Erythrophores,erythrophores,Aggr.
CN(C)[C@@H]1C(O)=C(C(N)=O)C(=O)[C@@]2(O)C(O)=C3C(=O)c4c(O)cccc4[C@@](C)(O)[C@H]3C[C@@H]12 [Tetrasycline],Chromatophore response 2-Cell Cytosensor (second cell type included),[8],Normal
same,Response time Hr.,chromatophores [1],XX (key: X=1-6 hr; XX=6-24 hr)
same,Threshold concentration PPM,chromatophores [1],X (key: X=1 to 100 PPM; XX=100 to 1000 PPM)
COP(=O)(OC)C(O)C(Cl)(Cl)Cl (stereo not drawn) [Trichlorfon],Threshold concentration PPT,chromatophores [1],X (key: X=1 PPT or higher)
COc1ccc(CCN(C)CCCC(C#N)(c2ccc(OC)c(OC)c2)C(C)C)cc1OC (stereo not drawn) [Verapamil],erythrophore pigment response,[4],rapid dispersion; also recorded: disperse almost as completely as possible; also recorded: pigment dispersion; also recorded: larger dispersion
COC(=O)[C@@H]1[C@H]2C[C@H]3c4[nH]c5ccccc5c4CCN3C[C@@H]2CC[C@@H]1O [Yohimbine],"Chromatophore response (cell spans the chromatophore columns, cell type not assigned)",chromatophores [1],Blocks norepinephrine
same,Threshold concentration PPB,chromatophores [1],X (key: X=1 to 100 PPB; XX=100 to 1000 PPB)
Cholera toxin,chromatophore pigment response,Betta chromatophores,Pigment aggregation is evident
same,effect of pre-incubation on norepinephrine-induced pigment aggregation,Betta chromatophores,impaired pigment aggregation in response to NE
same,lowest concentration at which inhibition of norepinephrine induced pigment aggregation is detected,[10],1 ng/m
same,change of appearance / color of chromatophores,[9],change the appearance
same,erythrophore response upon challenge by norepinephrine,[9],impaired
same,color class of chromatophores with selective sensitivity,chromatophores [5],erythrophores
same,Threshold concentration PPB,chromatophores [1],X (key: X=1 to 100 PPB; XX=100 to 1000 PPB)
Latrotoxin,Chromatophore response Erythrophores,erythrophores,Aggr
same,Chromatophore response 2-Cell Cytosensor (second cell type included),[2],Aggr.
MSH,Chromatophore response Melanophores,melanophores,Disp.
same,Chromatophore response Iridophores,iridophores,Hue changes (isolated
same,concentration at which chromatophores respond,chromatophores [5],0.001 µM
same,Threshold concentration PPB,chromatophores [1],X (key: X=1 to 100 PPB; XX=100 to 1000 PPB)
Mevinphos,Chromatophore response Melanophores,melanophores,Imp.
same,Chromatophore response Erythrophores,erythrophores,Imp. (FS)
same,Chromatophore response Iridophores,iridophores,"Hue change, then Imp."
same,Threshold concentration PPT,chromatophores [1],X (key: X=1 PPT or higher)
Penicillin,Chromatophore response 2-Cell Cytosensor (second cell type included),[8],Normal
"Substance P (RPKPQQFFGLM; ends and bridges not checked; UniProt P20366 58-68, looked up)",Chromatophore response Iridophores,iridophores,Hue changes (FS)
melanophore concentrating hormone [MCH],"Chromatophore response (cell spans the chromatophore columns, cell type not assigned)",chromatophores [1],Aggr.
same,Threshold concentration PPB,chromatophores [1],X (key: X=1 to 100 PPB; XX=100 to 1000 PPB)
